Assay results: patent publication US9551722B2, “Amyloid binding agents” (The Regents of the University of California, priority 2009, dated 2017)
Read-outs that look alike come from different tables or passages of the source.

Legend:
aggregated Aβ42 peptides = target: T1, aggregated Aβ42 peptides (Homo sapiens, UniProt P05067); assay: Apparent binding constant (Kd) of probes 27-31, 33 by fluorescence intensity vs concentration; conditions: probe 1.25, 2.5, 5.0, 10 μM in nano-pure water, 5 μM pre-aggregated Aβ42
T1 construct: preaggregated Aβ(1-42) peptides
Experimental: We also measured the apparent binding constants (Kd) of the probes to aggregated Aβ42 peptides. The fluorescent intensity of each probe was measured in concentrations of 1.25, 2.5, 5.0 and 10 μM in nano-pure water, mixed with 5 μM of the pre-aggregated Aβ42 peptides. Zhao, X.; Yang, J., ACS Chem. Neurosc. 1, (10), 655-660. […] On the other hand, a decrease of the Kd value was observed upon chemically altering the electron donor of the ANCA scaffold. […] FIGS. 10A-F show plots of the fluorescence intensity (at λ=525 nm) of compounds 27-31 and […], respectively, as a function of the concentration in the presence of aggregated Aβ42 peptides (5 μM) in solution.

[1] = target: T2, aggregated Aβ(1-42) peptides (Homo sapiens, UniProt P05067); assay: Fluorescence of probes 27-31, 33 before and after mixing with aggregated Aβ42; format: binding; conditions: 4 μM probe; for Em. max (nm) after / Exc. max (nm) after / Fold increase (emission intensity after binding): 5 μM aggregated Aβ(1-42); for Em. max (nm) before / Exc. max (nm) before: nano-pure water (5% DMSO), without Aβ
T2 construct: preaggregated Aβ(1-42) peptides
Experimental: Aggregated Aβ peptide was prepared by dissolving Aβ(1-42) in PBS pH 7.4 to a final concentration of 100 μM. This solution was magnetically stirred at 1200 rpm for 3 days at room temperature. The 100 μM Aβ(1-42) stock solution in PBS was aliquoted and frozen at −10° C. for up to 4 weeks without noticeable change in its property. 15 μL of the pre-aggregated Aβ(1-42) was added to 285 μL of the probe (5% DMSO in nano-pure water) to attain a final concentration of 5 μM Aβ(1-42) and 4 μM of the probe. The solution was transferred to a […] cuvette and the fluorescent measured. FIGS. 9A-F show fluorescence excitation spectra of Cmpds 27-31 and 33, respectively.
LeVine III, H., Protein Sci. 1993, 2, (3), 404-410. Along these lines, we compared the fluorescent properties of 27-31 or 33 in aqueous solution with or without the presence of aggregated Aβ42 peptides. Specifically, we measured the fluorescent properties of each dye at 4 μM concentration in nano pure water, before and after mixing with aggregated Aβ42 peptide (final concentration peptide=5 μM). As it is shown in table 5, in all cases we observed a significant increase (3 to 9-fold) in the intensity of the emission spectra of the probes upon association with the aggregated amyloid peptides. This intensity increase was also accompanied with a blue shift in the emission spectra of around 5-50 nm. […] FIG. 9C provides a representative example of the fluorescent properties of compound 29.

[2] = system: amyloid plaques in human tissue from AD cases; assay: Fluorescence imaging of amyloid plaques in tissue sections; conditions: frozen AD tissue sections, probe solution 30 min, washed with water
Experimental: FIGS. 11A-F depict fluorescence images of amyloid plaques in human tissue from AD cases. After the frozen tissue was sectioned and mounted to a glass slide, the tissue was exposed to a solution containing a fluorescent probe for 30 min. The sample was washed with water to eliminate non-specific staining of the tissue, and imaged using an inverted epi-fluorescence microscope. The images reveal the location of plaques that were stained with A) compound 27, B) compound 28, C) compound 29, D) compound 30, E) compound 31, or F) compound 33.

T1 sequence (P05067 672-713 limits assumed): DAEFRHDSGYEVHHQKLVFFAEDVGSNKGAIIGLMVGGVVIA
T2 sequence (P05067 672-713 limits assumed): as above

Row | Kd (aggregated Aβ42 peptides) | Kd (aggregated Aβ42 peptides; read-out: Kd) [µM] | Em. max (nm) after [1] [nm] | Exc. max (nm) after [1] [nm] | Fold increase (emission intensity after binding) [1] [fold] | Em. max (nm) before [1] [nm] | Exc. max (nm) before [1] [nm] | Compound | Staining of amyloid plaques (fluorescence image) [2]
1 | highest affinity | 1.6 |  |  |  |  |  | COCCOCCOCCOCCOC(=O)/C(C#N)=C/c1ccc2cc(N3CCCCC3)ccc2c1 [Compound 31, (E)-2-(2-(2-(2-methoxyethoxyl)ethoxy)ethoxy)ethyl 2-cyano-3-(2-(piperidin-1-yl)napthalen-6-yl) acrylate] | 
2 |  | 4.6 | 530 | 385 | 4.9 | 580 | 400 | COCCOCCOCCOC(=O)/C(C#N)=C/c1ccc2cc(N3CCN(C)CC3)ccc2c1 [Compound 28, (E)-2-(2-(2-methoxyethoxyl)ethoxy)ethyl 2-cyano-3-(2-(4-methylpiperazin-1-yl)napthalen-6-yl) acrylate] | stained
3 | highest affinity | 1.6 | 535 | 410 | 7.2 | 540 | 410 | N#C/C(=C\c1ccc2cc(N3CCCCC3)ccc2c1)C(=O)OCC(O)CO (stereo not drawn) [Compound 33, (E)-2,3-dihydroxypropyl 2-cyano-3-(2-(piperidin-1-yl)naphthalene-6-yl)acrylate] | stained
4 | highest affinity | 1.4 |  |  |  |  |  | COCCOCCOCCOC(=O)/C(C#N)=C/c1ccc2cc(N3CCCCC3)ccc2c1 [Compound 27, (E)-2-(2-(2-methoxyethoxyl)ethoxy)ethyl 2-cyano-3-(2-(piperidin-1-yl)napthalen-6-yl)acrylate] | 
5 |  | 6.7 | 540 | 430 | 2.9 | 570 | 430 | COCCOCCOCCOC(=O)/C(C#N)=C/c1ccc2cc(NCCN3CCOCC3)ccc2c1 [Compound 30, (E)-2-(2-(2-methoxyethoxyl)ethoxy)ethyl 3-(2-(2-morpholinoethylamino)naphthalen-6-yl)-2-cyano acrylate] | stained
6 |  | 13.8 | 525 | 380 | 5.1 | 530 | 400 | COCCOCCOCCOC(=O)/C(C#N)=C/c1ccc2cc(N3CCOCC3)ccc2c1 [Compound 29, (E)-2-(2-(2-methoxyethoxyl)ethoxy)ethyl 2-cyano-3-(2-morpholinonapthalen-6-yl)acrylate] | stained
